In patent US20240009174A1, “METHODS FOR DISRUPTING MITOCHONDRIAL UNFOLDED PROTEIN RESPONSE” (Health Research, Inc., priority 2020, published 2024):

Columns and labels:
LNCaP and PC-3 cells = test: Cellular ATP level; assay type: cell-based
Experimental: FIG. 7. Pharmacological inhibition of HSP60-ClpP interaction induces metabolic stress in PCa cells. (A) LNCaP and PC-3 cells were pre-treated with either rotenone or antimycin-A followed by DCEM1 treatment and mitochondrial ROS was analyzed as described in material and methods (data represented as fold change compared to control). In (A), the bars in each series from left to right are control, DCEM1, Rot+DCEM1, Anti A+DCEM1, Rot, and Anti A (B) ClpP protein was over-expressed in LNCaP and PC-3 cells followed by DCEM1 treatment and mitochondrial ROS was analyzed as described in material and methods (Data represented as fold change compared to control). […] (C) ClpP protein was over-expressed in LNCaP and PC-3 cells followed by DCEM1 treatment and level of poly-ubiquitinated protein was analyzed by western blotting. (D) ClpP protein was over-expressed in LNCaP and PC-3 cells followed by DCEM1 treatment and DEVDase activity was analyzed as described in material and methods (Data represented as fold change compared to control). […] (E) Mitochondrial membrane potential (mitoMP) was analyzed in LNCaP and PC-3 cells treated with DCEM1 as described in material and methods (Data represented as fold change compared to control). […] (F) ATP level was analyzed in LNCaP and PC-3 cells treated with DCEM1 as described in material and methods (Data represented as fold change compared to control). […]

[1] = system: PC-3 (AR negative) xenografts; test: PC-3 xenograft in SCID mice; assay type: in vivo; details: 60 mg/kg bw
Experimental: FIG. 8. Pharmacological inhibition of HSP60-ClpP inhibit oncogenic signaling and PCa tumor growth in vivo. (A) LNCaP, PC-3 and 22RV1 cells were treated with DCEM1 and analyzed for c-Myc and EZH2 protein expression after 24 hours of treatment. (B) LNCaP, 22RV1 and VCaP cells were treated with DCEM1 and analyzed for AR and PSA protein expression after 24 hours of treatment. (C-D) 22RV1 cells (1×10^6 cells) were mixed with matrigel (50:50 v/v) and injected into each flank of SCID mice and treated with DCEM1 (60 mg/kg bw) through IP route twice weekly and tumors were harvested, photographed (C) and weighed (D) at 30 days. (E) DEVDase activity were analyzed in 22RV1 xenograft tumor tissue following DCEM1 treatment and represented as fold change compared to control. (F) 22RV1 xenograft tissue were sectioned and expression of ki67, c-Myc and EZH2 proteins were analyzed by Immunohistochemistry as described in material and methods. (G-H) PC-3 cells (1×10^6 cells) were mixed with matrigel (50:50 v/v) and injected into each flank of SCID mice and treated with DCEM1 (60 mg/kg bw) through IP route twice weekly and tumors were harvested, photographed (G) and weighed (H) at 35 days. (I) DEVDase activity were analyzed in PC-3 xenograft tumor tissue following DCEM1 treatment and represented as fold change compared to control. (J) PC-3 xenograft tumor tissue were fixed and sections were used for in situ PLA to analyze HSP60-ClpP interaction in these tissue samples. […] All animals were sacrificed at 16 weeks of age and prostate tissue and tumors were harvested, whole cell lysate were prepared and analyzed for HSP60 and ClpP expression (N); c-Myc and EZH2 expression (0) and SYP and CK 8/18 expression (P) by immunoblotting. […]
Ablation of HSP60-ClpP interaction by DCEM1 downregulates c-Myc, EZH2 and AR as well as inhibits tumor growth in vivo. […] The effect of DCEM1 on 22RV1 (AR positive) and PC-3 (AR negative) xenografts growth in SCID mice was analyzed. […]

SMILES: CCOc1cc(CNCc2nc3ccccc3[nH]2)ccc1OCc1cccs1 [DCEM1]
- cellular ATP (LNCaP and PC-3 cells): reduction of cellular ATP
- HSP60-ClpP interaction by in situ PLA in PC-3 xenograft tumors [1]: inhibited HSP60-ClpP interaction
- caspase-3 (DEVDase) activity in PC-3 xenograft tumors ([1]; IP, twice weekly): induced
- tumor volume and weight, PC-3 xenografts ([1]; IP, twice weekly, 35 days): effectively inhibited
